Usually Ki stands for the equilibrium dissociation constant of an inhibitor or competing ligand from its target. Low values mean a stronger hold on the target, high ones a looser hold on the target.

Cytidine deaminase, sequence (P56389 whole entry): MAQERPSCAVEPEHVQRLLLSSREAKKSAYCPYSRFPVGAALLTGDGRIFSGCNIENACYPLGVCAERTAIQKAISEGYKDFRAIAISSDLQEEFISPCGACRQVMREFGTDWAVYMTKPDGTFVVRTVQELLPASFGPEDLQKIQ

The first assay has as its target T1, Adenosine deaminase (Mus musculus, UniProt P03958).
T1 sequence (P03958 whole entry): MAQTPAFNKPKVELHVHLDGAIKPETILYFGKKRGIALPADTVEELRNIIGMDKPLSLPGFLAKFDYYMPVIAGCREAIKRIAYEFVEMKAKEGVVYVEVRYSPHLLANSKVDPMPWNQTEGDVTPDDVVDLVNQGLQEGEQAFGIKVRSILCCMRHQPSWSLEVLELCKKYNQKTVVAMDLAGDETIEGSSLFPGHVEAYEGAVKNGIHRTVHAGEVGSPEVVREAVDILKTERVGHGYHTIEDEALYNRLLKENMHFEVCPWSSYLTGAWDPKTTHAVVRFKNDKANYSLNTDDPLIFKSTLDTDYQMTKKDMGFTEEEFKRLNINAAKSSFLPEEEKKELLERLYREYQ
Description: Compound was tested for the inhibitory constant for adenosine deaminase (ADA).
On to `O=c1ncccn1[C@@H]1O[C@H](CO)[C@@H](O)[C@H]1O` [ZEBULARINE], for which the Ki came to 1 µM.

A further assay addresses Cytidine deaminase (Mus musculus, UniProt P56389). As to the kind of experiment: Compound was tested for the inhibitory constant for mouse kidney cytidine deaminase.
For the compound `O=C1NC(CO)C=CN1C1O[C@H](CO)[C@@H](O)[C@H]1O` (stereo partly drawn), the affinity corresponds to a Ki of 0.4 µM.

Compound `OC[C@H]1O[C@@H](n2cnc3cncnc32)[C@H](O)[C@@H]1O` [NEBULARINE] came in with a Ki of 10 µM.

In turn, `O=c1nc(CO)ccn1C1O[C@H](CO)[C@@H](O)[C@H]1O` (stereo partly drawn) had an inhibitory constant (Ki) of 100 µM.

`OCC1NC=Nc2c1ncn2[C@@H]1O[C@H](CO)[C@@H](O)[C@H]1O` (stereo partly drawn) displayed a Ki of 10 µM.

In the case of `O=C1NC=CCN1C1O[C@H](CO)[C@@H](O)[C@H]1O` (stereo partly drawn), the inhibitory constant (Ki) came to 4 µM.

`O=C1NCC=CN1[C@@H]1O[C@H](CO)[C@@H](O)[C@H]1O` had a Ki of 4 µM.

The compound `O=C1NC(C(O)O)CCN1C1O[C@H](CO)[C@@H](O)[C@H]1O` (stereo partly drawn) gave an inhibitory constant (Ki) of 20 µM.

The values are drawn from ChEMBL document CHEMBL1123331, “Synthesis of pyrimidin-2-one nucleosides as acid-stable inhibitors of cytidine deaminase” (J Med Chem, 1986).
